Earlier results in article PMC8886800 (Journal of the American Chemical Society, 2021).

What was measured:
[1] = tested on: VEGFR
[2] = tested on: angiogenesis

Ac-KLTWMELY QLAYKGI [MA]
binding to VEGF receptors (reported) [1]: demonstrated binding to VEGF receptors
effect on angiogenesis (reported) [2]: capable of inhibiting angiogenesis
